Reference: the supplement of paper PMC6723410

Each molecule was assayed on GUMC-403 (assay: viability at highest tested concentration (max response) relative to DMSO (% of DMSO control); higher = less cytotoxic). Conditions: library / dose series: MIPE library, 11-point 1:3 dilution; top concentration 23 µM; 48 h.
Summary of the method: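 The value is viability at the highest tested concentration, expressed relative to vehicle control. Patient-derived GUMC-403 papilloma cells, grown by conditional reprogramming, were seeded at 700/well in 5 μL F + Y medium in 1536-well plates. After an overnight incubation at 37 °C, they received 23 nL of compound by pin tool for 48 h. Readout was CellTiter-Glo luminescence on a ViewLux, normalised to vehicle wells (100%) and empty wells (0%).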

Row | SMILES | viability
1 | O=P(O)(O)C(O)(Cn1ccnc1)P(=O)(O)O | 122

Same assay, conditions: library / dose series: MIPE library, 11-point 1:3 dilution; top concentration 46.1 µM; 48 h

Row | SMILES | viability
2 | CC[C@H](NC(C)C)[C@H](O)c1ccc(O)c2[nH]c(=O)ccc12 | 123
3 | O=C1NC(O)CCN1[C@@H]1O[C@H](CO)[C@@H](O)[C@H]1O (some centres not stated) | 124
4 | COc1cc(F)c(C(C)C)cc1-c1ccc(C(F)(F)F)cc1CN1C(=O)O[C@H](c2cc(C(F)(F)F)cc(C(F)(F)F)c2)[C@@H]1C | 100
5 | Cc1oncc1C(=O)Nc1ccc(C(F)(F)F)cc1 | 105
6 | COc1cc(O)c2c(c1)C1OC1C[C@H](O)[C@H](O)C(=O)/C=C\C[C@H](C)OC2=O (some centres not stated) | 107
7 | CN[C@@H]1[C@@H](O)[C@@H](O[C@@H]2[C@@H](O)[C@H](O[C@H]3O[C@H](CN)[C@@H](O)[C@H](O)[C@H]3O)[C@@H](N)C[C@H]2NC(=O)[C@@H](O)CN)OC[C@]1(C)O | 96.8
8 | Cc1cc(O)c2c(c1)C(=O)c1cccc(O)c1C2=O | 95.5
9 | O=NN(CCCl)C(=O)NCCCl | 131
10 | CC(C)Cn1cnc2c(N)nc3ccccc3c21 | 116
11 | CC(=O)NC(C)c1ccc(Oc2ccc(OC(C)C)cc2)cc1 (configuration not stated) | 121
12 | CC(C)c1nc(CN(C)C(=O)N[C@H](C(=O)N[C@@H](Cc2ccccc2)C[C@H](O)[C@H](Cc2ccccc2)NC(=O)OCc2cncs2)C(C)C)cs1 | 99.7
13 | CC(C)(C)OC(=O)Nc1ccc(-c2cc(C(=O)NCCCCCCC(=O)NO)no2)cc1 | 81.6
14 | C[C@]12CC[C@H]3[C@@H](CCC4=CC(=O)CC[C@@H]43)[C@@H]1CC[C@@H]2OC(=O)CCc1ccccc1 | 118
15 | CNC(=O)c1c(F)cccc1Nc1nc(Nc2cc3c(cc2OC)CCN3C(=O)CN(C)C)nc2[nH]ccc12 | 84.8
16 | COCCOc1ccc2c(c1)ncn2-c1ccc2cccc(N3CCC(N)CC3)c2n1 | 87
17 | CC12CC3CC(C)(C1)CC(N)(C3)C2 | 117
18 | Nc1ncnc2c1c(-c1cccc(OCc3ccccc3)c1)cn2C1CC(CN2CCC2)C1 (configuration not stated) | 98.4
19 | CCc1nc(-c2cccc(C)c2)c(-c2ccnc(NC(=O)c3ccccc3)c2)s1 | 108
20 | CCOC(=O)/C=C/[C@H](C[C@@H]1CCNC1=O)NC(=O)[C@@H](CC(=O)[C@@H](NC(=O)c1cc(C)on1)C(C)C)Cc1ccc(F)cc1 | 142
21 | O=C1CSC(=O)N1C(CCc1ccncc1)COc1ccc(-c2cccc([N+](=O)[O-])c2)cc1 (configuration not stated) | 79.8
22 | Cc1ccc(F)c(NC(=O)Nc2ccc(-c3cccc4[nH]nc(N)c34)cc2)c1 | 50.7
23 | CCNC(=O)C[C@H]1/N=C(/C2=CC=C(Cl)C=C2)C3=CC(=CC=C3[N]4C(=NN=C14)C)OC | 93.5
24 | Cc1cccc(Nc2ccncc2[S+](=O)([O-])NC(=O)NC(C)C)c1 | 108
25 | CN(C)CCC=C1C2=C(C=CC=C2)\C=C/C3=C1C=CC=C3 | 115
26 | Cc1cccc(-c2[nH]c(C(C)(C)C)nc2-c2ccc3nccnc3c2)n1 | 140
27 | Clc1cccc(-n2nnnc2NCc2ccccc2Oc2ccccn2)c1Cl | 116
28 | C[C@]12CC[C@H]3[C@@H](CCC/4=C/C(=O)CC[C@]34C)[C@@H]1CC[C@@H]2O | 112

Row | SMILES | viability
29 | CCC(=O)NC[C@H](Cc1ccc(OCCc2nc(-c3ccccc3)oc2C)cc1)N/C(C)=C\C(=O)c1ccc(C(F)(F)F)cc1 | 109
30 | N\C1=N\C2=C(N=C[N]2COC(CO)CO)C(=O)N1 | 43.9
31 | CCC(=O)OC1CCC2C3CCC/4=C/C(=O)CC[C@@]4(C)C3CC[C@]12C (some centres not stated) | 130
32 | NC(=O)c1ncn([C@@H]2O[C@H](CO)[C@@H](O)[C@H]2O)c1O | 116
33 | CC1COC2(CCN(CC2)C/3=N/C(=O)C4=CC(=CC(=C4S3)[N+]([O-])=O)C(F)(F)F)O1 (configuration not stated) | 122
34 | CCCCC(C=O)NC(=O)C(CC(C)C)NC(=O)OCc1ccccc1 (configuration not stated) | 82
35 | CSCC[C@@H](NC(=O)[C@@H](Cc1ccccc1)NC(=O)CNC(=O)CNC(=O)[C@@H](N)Cc1ccc(O)cc1)C(=O)O | 126
36 | CNC1CCCN(c2c(F)cc3c(=O)c(C(=O)O)cn(C4CC4)c3c2OC)C1 (configuration not stated) | 121
37 | CCC[S+]([O-])c1ccc2[nH]c(NC(=O)OC)nc2c1 (configuration not stated) | 92.2
38 | CNC(=O)c1cc(COc2nnc(Nc3ccc(Cl)cc3)c3ccoc23)ccn1 | 113
39 | CCC(c1ccc(O)cc1)C(CC)c1ccc(O)cc1 (configuration not stated) | 116
40 | CC(C)C[C@H](NC(=O)c1cc2ccccc2s1)C(=O)N1CCN(C(=O)[C@H](CO)N[S+](=O)([O-])c2ccc(Cl)cc2Cl)CC1 | 109
41 | CC[C@@H](C)[C@H](NC(=O)[C@H](CC1CCCCC1)NC(=O)c1ccno1)C(=O)N1CCC2(CCc3ccccc32)CC1 | 90.5
42 | CC(NC(C)(C)C)C(=O)c1cccc(Cl)c1 (configuration not stated) | 127
43 | Cc1ccc(NC(=O)c2ccc(CN3CCN(C)CC3)cc2)cc1Nc1nccc(-c2cccnc2)n1 | 127
44 | Cc1ccccc1C(C(=O)NC1CCCC1)N(C(=O)Cn1cnc2ccccc21)c1cccc(F)c1 (configuration not stated) | 101
45 | OC(CN1CCN(c2cccc(Cl)c2)CC1)C(c1ccccc1)c1ccccc1 (configuration not stated) | 92
46 | CN(C)CC(C)(C)CNc1nn2c(-c3ccccc3)nnc2cc1C1CCC1 | 108
47 | CCN(C(=O)C/1=C(O)/C2=C(C=CC=C2Cl)N(C)C1=O)C3=CC=CC=C3 | 119
48 | CC(=O)OC[C@@H]1O[C@H]([C@H](OC(C)=O)[C@@H]1OC(C)=O)N2\C=C/C(=O)NC2=O | 110
49 | OC[C@H](Cc1ccccc1)Nc1nc(Oc2ccc3c(c2)CCC3)nc2c1ncn2Cc1ccc(-c2ccccc2)cc1 | 101
50 | CN[C@@H](C)C(=O)N[C@H]1CN(C(=O)CC(C)C)CC[C@H]2CC[C@@H](C(=O)NC(c3ccccc3)c3ccccc3)N2C1=O | 73.1
51 | O=C(CS(=O)Cc1ccco1)NC/C=C\COc1cc(CN2CCCCC2)ccn1 (configuration not stated) | 128
52 | O=C(Oc1ccc([N+](=O)[O-])cc1)N1CCN(Cc2cccc(Oc3ccccc3)c2)CC1 | 63.7
53 | COc1cc2ncnc(Nc3ccc(F)c(Cl)c3)c2cc1NC(=O)/C=C/CN1CCCCC1 | 63.8
54 | Cc1cc(Nc2cc(N3CCN(C)CC3)nc(Sc3ccc(NC(=O)C4CC4)cc3)n2)[nH]n1 | 86.3
55 | CC/1=C(/N2[C@H](SC1)[C@H](NC(=O)[C@H](N)\C3=C\C\C=C/C3)C2=O)C(O)=O | 121

Row | SMILES | viability
56 | CC(COc1ccccc1)N(CCCl)Cc1ccccc1 (configuration not stated) | 122
57 | N#C/C(=C(/N)Sc1ccc(N)cc1)c1ccccc1C(F)(F)F | 87.9
58 | Cc1csc(NC(=O)c2sc3nc4c(c(C(F)(F)F)c3c2N)CCC4)n1 | 94.1
59 | O=C(Nc1cc2cc[nH]c2cn1)c1ccccc1 | 55.2
60 | Cc1ccc(NC(=O)c2ccc(CN3CCN(C)CC3)cc2)cc1Nc1nc(-c2cccnc2)cs1 | 130
61 | O=C1C[C@@H](c2ccc(O)cc2)Oc2cc(O)cc(O)c21 | 113
62 | CC(=O)O[C@H]1C[C@@H]2CC[C@@H]3[C@H](CC[C@@]4(C)[C@H]3C[C@H]([N+]3(C)CCCCC3)[C@@H]4OC(C)=O)[C@@]2(C)C[C@@H]1N1CCCCC1 | 130
63 | CNNCc1ccc(C(=O)NC(C)C)cc1 | 149
64 | Clc1ccc(CCC(Cn2ccnc2)Sc2c(Cl)cccc2Cl)cc1 (configuration not stated) | 97
65 | OCCNC1CCCc2c1[nH]c1ccc(-c3ccccc3)cc21 (configuration not stated) | 107
66 | COc1ccc2c(c1OC)C(=O)O[C@H]2[C@H]1c2c(cc3c(c2OC)OCO3)CCN1C | 103
67 | C=C(c1ccc(C(=O)O)cc1)c1cc2c(cc1C)C(C)(C)CCC2(C)C | 97.6
68 | O=[S+]([O-])(c1cccc2cnccc12)N1CCCNCC1 | 128
69 | O=c1c(-c2ccc(O)cc2)coc2cc(O[C@@H]3O[C@H](CO)[C@@H](O)[C@H](O)[C@H]3O)ccc12 | 135
70 | CN1C(=O)C(=C\C2=C1N=C(NC3=CC=CC(=C3)C(O)=O)N=C2)/C4=C(Cl)C=CC=C4Cl | 148
71 | Cc1cn2c(-c3cn[nH]c3)cnc2c(Nc2ccc(C(=O)N3CCNCC3)cc2F)n1 | 60.9
72 | NC\1=N\C(=O)N(\C=C1)[C@@H]2O[C@H](CO)[C@@H](O)[C@H]2O | 128
73 | COc1cc(N[S+](=O)([O-])c2ccc(N)cc2)nc(OC)n1 | 142
74 | CC1(C)CC\C2=C(/O1)C3=C(C=CC=C3)C(=O)C2=O | 123
75 | Oc1ccc(C2CNCCc3c2cc(O)c(O)c3Cl)cc1 (configuration not stated) | 120
76 | Oc1cc2c(cc1O)C1c3ccc(O)c(O)c3OCC1(O)C2 (configuration not stated) | 129
77 | CC(C)[C@@H](N(CCCN)C(=O)C1=CC=C(C)C=C1)C/2=N/C3=CC(=CC=C3C(=O)N2CC4=CC=CC=C4)Cl | 121
78 | NC(=O)c1cccc(-c2cc(Nc3ccc(OC(F)(F)F)cc3)ncn2)c1 | 117
79 | COc1cc2c(cc1OC)C1CC(=O)C(CC(C)C)CN1CC2 (configuration not stated) | 110
80 | C#CCN[C@@H]1CCc2ccccc21.CS(=O)(=O)O | 89
81 | C[C@@H]1CC[C@@]2(OC1)O[C@H]3C[C@H]4[C@@H]5C/C=C6/C[C@H](CC[C@]6(C)[C@H]5CC[C@]4(C)[C@H]3[C@@H]2C)O[C@@H]7O[C@H](CO)[C@@H](O[C@@H]8O[C@@H](C)[C@H](O)[C@@H](O)[C@H]8O)[C@H](O)[C@H]7O[C@@H]9O[C@@H](C)[C@H](O)[C@@H](O)[C@H]9O | 112

Same assay, conditions: library / dose series: MIPE library, 11-point 1:3 dilution; top concentration 92.2 µM; 48 h

Row | SMILES | viability
82 | Nc1cccc2c1CN([C@H]1CCC(=O)NC1=O)C2=O | 106
